From US7820865B2, “Photolatent systems” (Ciba Corporation, priority 2005, dated 2010) come the findings set out here.

A word on the melting point: it is the temperature, or range, at which the solid turns liquid.

With `CCOCC(=O)c1cc(C(C)C)c(O)c(C(C)C)c1`, the melting point fell in the range of 97 to 98 °C.

Take `COc1cc(C=O)ccc1OCC(=O)c1cc(C(C)(C)C)c(O)c(C(C)(C)C)c1` [Compound 101, 4-[2-(3,5-di-tert-butyl-4-hydroxyphenyl)-2-oxo-ethoxy]-3-methoxy-benzaldehyde]: the melting point is 99 to 100 °C.

`COc1cc(C=O)ccc1OCC(=O)c1cc(C2CCCCC2)c(O)c(C2CCCCC2)c1` [Compound 103, 4-[2-(3,5-di-cyclohexyl-4-hydroxyphenyl)-2-oxo-ethoxy]-3-methoxy-benzaldehyde]: the melting point is 163 to 164 °C.

`CC(C)(C)c1cc(C(=O)COc2ccc(Cl)cc2Oc2ccc(Cl)cc2Cl)cc(C(C)(C)C)c1O` [Compound 104, 2-[4-chloro-2-(2,4-dichloro-phenoxy)-phenoxy]-1-(3,5-di-tert-butyl-4-hydroxyphenyl)-ethanone] gave a melting point of 111 to 114 °C.

`Cc1ccc(OCC(=O)c2cc(C(C)C)c(O)c(C(C)C)c2)cc1` [Compound 105, 1-(4-hydroxy-3,5-di-isopropylphenyl)-2-p-tolyloxy-ethanone]: the melting point fell in the range of 124 to 125 °C.

Regarding `CCC(C)(C)c1cc(C(=O)COc2ccc(C=O)cc2OC)cc(C(C)(C)CC)c1O` [Compound 107, 4-{2-[3,5-bis(1,1-dimethyl-propyl)-4-hydroxy-phenyl]-2-oxo-ethoxy}-3-methoxy-benzaldehyde], the melting point lay within 106 to 107 °C.

As to `CC(C)=CCC/C(C)=C/COCC(=O)c1cc(C(C)C)c(O)c(C(C)C)c1` [Compound 108, 2-[(E)-3,7-dimethyl-octa-2,6-dienyloxy]-1-(4-hydroxy-3,5-di-isopropyl-phenyl)-ethanone], the melting point was in the range of 70 to 71 °C.

Take `CC(C)=CCCC(C)CCOCC(=O)c1cc(C(C)C)c(O)c(C(C)C)c1` (centres unmarked) [Compound 109, 2-(3,7-dimethyl-oct-6-enyloxy]-1-(4-hydroxy-3,5-di-isopropyl-phenyl)-ethanone]: the melting point lay within 37 to 39 °C.

The compound `CC(C)c1cc(C(=O)CO[C@@H]2C[C@H](C)CC[C@H]2C(C)C)cc(C(C)C)c1O` [Compound 110, 1-(4-hydroxy-3,5-di-isopropylphenyl)-2-[(1R,2S,5R)-2-isopropyl-5-methyl-cyclohexyloxy]-ethanone] gave a melting point of 83 to 84 °C.

`CCOCC(=O)c1cc(C(C)(C)C)c(O)c(C(C)(C)C)c1` [Compound 113, 2-ethoxy-1-(4-hydroxy-3,5-di-tert-butylphenyl)-ethanone] came in with a melting point of 73 to 75 °C.

`CCOC(C)C(=O)c1cc(C(C)(C)C)c(O)c(C(C)(C)C)c1` (centres unmarked) [Compound 115, 1-(3,5-di-tert-butyl-4-hydroxyphenyl)-2-ethoxy-propan-1-one] came in with a melting point of 64 °C.

`CC(C)=CCC/C(C)=C/COCC(=O)c1cc(C(C)(C)C)c(O)c(C(C)(C)C)c1` [Compound 116, 1-(3,5-di-tert-butyl-4-hydroxyphenyl)-2-[(E)-3,7-dimethyl-octa-2,6-dienyloxy]-ethanone]: the melting point was found to be 50 °C.

`CC(C)c1cc(C(=O)CI)cc(C(C)C)c1O` [Compound 201, 1-(4-hydroxy-3,5-di-isopropylphenyl)-2-iodo-ethanone] gave a melting point of 127 to 128 °C.

The compound `CC(C)(C)c1cc(C(=O)CI)cc(C(C)(C)C)c1O` [Compound 202, 1-(4-hydroxy-3,5-di-tert-butylphenyl)-2-iodo-ethanone] came in with a melting point of 88 to 89 °C.

Compound `O=C(CI)c1cc(C2CCCCC2)c(O)c(C2CCCCC2)c1` [Compound 203, 1-(4-hydroxy-3,5-di-cyclohexyphenyl)-2-iodo-ethanone] gave a melting point of 183 to 185 °C.

`CCC(C)(C)c1cc(C(=O)CI)cc(C(C)(C)CC)c1O` [Compound 204, 1-(3,5-bis(1,1-dimethylpropyl)-4-hydroxyphenyl)-2-iodo-ethanone] returned a melting point of 76 to 77 °C.

`CC(I)C(=O)c1cc(C(C)(C)C)c(O)c(C(C)(C)C)c1` (centres unmarked) [Compound 205, 1-(4-hydroxy-3,5-tert-butylphenyl)-2-iodo-propane-1-one] registered a melting point of 141 °C.
